# Laboratory results: patent US20070088086A1, “Method of using synthetic L-Se-methylselenocysteine as a nutriceutical and a method of its synthesis” (PharmaSe, Incorporated, priority 1999, published 2007)
# Key:
# [1] = In vitro lucigenin chemiluminescence (CL) assay of superoxide generation in the presence of GSH
# Experimental: Methylseleninic acid (CH3SeOOH) was a dissolved in distilled water. Using a Rannin micropipette, aliquots were added directly to 1.0 ml of a buffered cocktail solution. The buffered cocktail solution was comprised of lucigenin (20 μg/ml), reduced glutathione (GSH) (4 mg/ml), and either sodium borate (0.05M) or sodium phosphate (0.05M), all purchased from Sigma Chemical Co. Two different buffered cocktail solutions were employed: the cocktail containing sodium borate was used for experiments at pH 9.2, which is optimum for the generation, detection and quenching of selenium catalyzed superoxide; and the cocktail containing sodium phosphate was used for experiments at pH 7.4, which is reflective of physiological conditions. One ml of the cocktail solution was added to a 10×50 mm polypropylene tube for use in the chemiluminescence (CL) assay. Chemiluminescence, using lucigenin as the detector of superoxide, was counted in repetitive integrated 30 second increments over time using a Los Alamos Diagnostics (Model 535) chemiluminometer, to which was attached a LKB Model 2209 circulating water bath that held the tube at 36° C. All chemical test assays and controls were performed by the addition of methylseleninic acid directly to the luminometer test tube in the counting chamber. Superoxide dismutase, SOD, purchased from Sigma Chemical Co., was added to the test tube prior to the addition of the methylseleninic acid and used to quench the chemiluminescent reactions.
# The complete chemiluminescence cocktail (containing buffer, lucigenin and GSH) produced very low, yet detectable amounts of background chemiluminescence at both a pH of 9.2 and 7.4. This was most likely due to the ambient spontaneous oxidation of GSH, but was not significant to the tests performed. […] Thus the chemiluminescence produced and quantitated in these assays can be attributable to the generation of superoxide. […] The chemiluminescence generated by selenoate catalysis may be used to quantitatively approximate the amount of catalytic selenium present.
# [2] = test system: rats; details: acute toxicity, reported (Spallholz, 1994); cited from earlier work
# [3] = test system: colon carcinogenisis; details: dietary 1.0-2.0 ppm; cited from earlier work
# [4] = test system: lung, cholorectal and prostate cancer; details: dietary supplement up to 200 μg/Se/day more than that found in foods; cited from earlier work
# [5] = selenol or thiol group; cited from earlier work
# [6] = Solubility of the obtained amino acid in solvents; type: physicochemical
# Excerpt: It is contemplated that ion exchange chromatography may be used to purify the amino acid. It is also possible that, on a larger scale, L-Se-methylselenocysteine may be crystallized. […] Accordingly, ethanol may be one likely crystallization solvent.
# [7] = test system: human cancer cells; assay: Toxicity to cancer cells, same protocol as normal cells (FIG. 2); type: cell-based; details: compared with selenomethionine
# Experimental: FIG. 2 is a graphic comparison showing that L-Se-methylselenocysteine is more toxic to human cancer cells than L-selenomethionine.
# (§1) FIG. 1 illustrates a comparison between L-Se-methylselenocysteine and L-selenomethionine, and their effect on the growth of normal rabbit fibroblasts. Tests were performed at varying concentrations of L-Se-methylselenocysteine and L-selenomethionine over a three-day period. The amount of cellular growth, as measured by DNA synthesis, that could be stimulated by calf serum at the end of this period was assessed by the addition of tritiated thymidine.
# [8] = Acute toxicity in a mouse (FIG. 3); details: in vivo
# Experimental: FIG. 3 is a graphic comparison showing the acute toxicity of L-Se-methylselenocysteine in a mouse versus the acute toxicity of selenomethionine in rats.
# as §1
# [9] = test system: normal rabbit fibroblasts; assay: Growth of normal rabbit fibroblasts, DNA synthesis by tritiated thymidine (FIG. 1); type: cell-based; details: three-day period, compared with selenomethionine
# Experimental: FIG. 1 is a graphic comparison between L-Se-methylselenocysteine and L-selenomethionine and their effect on the growth of normal rabbit fibroblasts.
# as §1
# [10] = test system: mammary tumors; details: 1 and 2 ppm in rats' diets; cited from earlier work
# [11] = test system: pre-neoplastic and tumor cell lines; details: cited from earlier work
# [12] = test system: cells in culture; details: cited from earlier work
structure (smiles),measurement,setting,value
CS [methylthiol],quenching of chemiluminescence by SOD,[1]; pH not stated,SOD did not significantly quench the chemiluminescence
same,superoxide generation / chemiluminescence in the in vitro CL assay,[1]; pH not stated,only a fraction of the amount of chemiluminescence as compared to methylselenol
C[Se]CC[C@H](N)C(=O)O [L-selenomethionine],LD50,[2],4.25 mg/kg
same,effect on the promotional stages of rat colon carcinogenisis,[3],inhibitory effect
same,superoxide generation / chemiluminescence in the in vitro CL assay,[1]; pH not stated,do not generate superoxide
same,cancer incidence in humans,[4],"reduce the incidence of lung, cholorectal and prostate cancer"
C[SeH] [methylselenol],superoxide generation / chemiluminescence in the in vitro CL assay,[1]; pH not stated,very active redox compound producing superoxide
N[C@@H](CS)C(=O)O [cysteine],pKa,[5],8-9
C[Se]C[C@H](N)C(=O)O [L-Se-methylselenocysteine],solubility,[6]; in ethanol,sparingly soluble
same,solubility,[6]; in methanol,fairly soluble
same,solubility,[6]; in water,soluble
same,toxicity to cancer cells,[7],more toxic to cancer cells
same,superoxide generation / chemiluminescence in the in vitro CL assay,[1]; pH not stated,do not generate superoxide
same,LD50,[8],8 mg/kg
same,"toxicity to normal cells (growth, DNA synthesis)",[9],less toxic to normal cells
N[C@@H](C[SeH])C(=O)O [selenocysteine],pKa,[5],5.25
C[Se]C[C@H](N)C(=O)O (racemic) [Se-methylselenocysteine],appearance of palpable mammary tumors,[10],decreases the appearance of palpable mammary tumors
same,"anticancer effects (cell morphology, cell number, DNA strand breaks)",[11],beneficial anticancer effects
"C[Se](=O)O [methylseleninic acid, Methylseleninic acid]",lowest level at which chemiluminescence (superoxide generation) could be detected,"[1]; FIG. 4, GSH reduction",0.56 nanomoles of selenium
same,quenching of chemiluminescence by SOD,"[1]; pH 7.4, 100 units of SOD",quenched most of the chemiluminescence activity
same,chemiluminescence,"[1]; pH 7.4, complete cocktail with GSH and lucigenin",produced chemiluminescence
same,quenching of chemiluminescence by SOD,"[1]; pH 9.2, 100 units of SOD added prior",quenched an initial burst of chemiluminescence activity
same,superoxide generation (chemiluminescence),"[1]; pH 9.2, complete cocktail with GSH and lucigenin",generated superoxide
same,chemiluminescence with lucigenin alone,"[1]; without GSH, pH 9.2 and 7.4",produced no additional chemiluminescence
same,chemiluminescence with GSH alone,"[1]; without lucigenin, pH 9.2 and 7.4",produced no additional chemiluminescence
O=[Se](O)O [selenite],induction of apoptosis,[12],induces DNA ladders and apoptosis
